Data on three compounds can be found in PMC5696560 (Bioorganic & Medicinal Chemistry Letters, 2017).

Broadly, the IC50 is the point on the concentration scale where inhibition reaches its midpoint. A lower IC50 goes with inhibition by little substance.

For this series, the target named is hERG channel (Homo sapiens, UniProt Q12809). Description: Inhibition of the hERG channel. The settings on record: for IC50: studies conducted by Wuxi AppTec. In kind it is biochemical. For orientation: The hERG channel carries a current that helps repolarise heart muscle cells.
Sequence of hERG channel (Q12809 whole entry): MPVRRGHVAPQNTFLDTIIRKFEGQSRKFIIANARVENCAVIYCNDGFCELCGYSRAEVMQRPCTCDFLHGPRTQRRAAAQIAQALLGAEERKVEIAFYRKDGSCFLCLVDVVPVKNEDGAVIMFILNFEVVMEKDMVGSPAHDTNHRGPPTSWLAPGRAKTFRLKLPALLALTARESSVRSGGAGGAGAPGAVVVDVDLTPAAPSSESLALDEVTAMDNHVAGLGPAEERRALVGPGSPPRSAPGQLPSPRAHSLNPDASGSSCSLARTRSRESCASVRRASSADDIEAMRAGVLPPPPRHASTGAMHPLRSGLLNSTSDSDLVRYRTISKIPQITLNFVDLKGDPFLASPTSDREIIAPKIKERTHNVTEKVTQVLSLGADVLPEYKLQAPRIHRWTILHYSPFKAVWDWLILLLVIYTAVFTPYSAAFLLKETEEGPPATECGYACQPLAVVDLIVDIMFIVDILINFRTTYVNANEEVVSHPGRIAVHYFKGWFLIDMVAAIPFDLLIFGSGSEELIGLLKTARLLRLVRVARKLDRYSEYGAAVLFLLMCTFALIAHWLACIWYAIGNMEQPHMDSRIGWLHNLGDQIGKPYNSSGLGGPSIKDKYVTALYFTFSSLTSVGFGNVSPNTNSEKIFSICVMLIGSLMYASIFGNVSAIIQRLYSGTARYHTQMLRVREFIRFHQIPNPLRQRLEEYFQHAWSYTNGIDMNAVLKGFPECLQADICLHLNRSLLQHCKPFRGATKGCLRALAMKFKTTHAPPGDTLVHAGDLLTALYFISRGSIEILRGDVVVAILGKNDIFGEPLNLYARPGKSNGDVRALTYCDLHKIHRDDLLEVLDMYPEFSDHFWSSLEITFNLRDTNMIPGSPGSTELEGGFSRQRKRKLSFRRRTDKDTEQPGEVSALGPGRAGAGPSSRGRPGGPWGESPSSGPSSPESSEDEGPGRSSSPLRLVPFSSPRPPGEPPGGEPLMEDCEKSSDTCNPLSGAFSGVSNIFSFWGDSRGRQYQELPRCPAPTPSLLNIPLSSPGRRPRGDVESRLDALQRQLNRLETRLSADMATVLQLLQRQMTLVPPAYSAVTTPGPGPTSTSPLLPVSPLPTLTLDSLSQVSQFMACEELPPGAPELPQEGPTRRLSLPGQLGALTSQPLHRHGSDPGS

As to `COc1nc2ccc(Br)cc2cc1[C@@H](c1cc(C)c(C)s1)[C@@](O)(CCN(C)C)c1cccc(F)c1` [Compound 9], inhibition was half-maximal at 880 nM (IC50).
The compound `COc1nc2ccc(Br)cc2cc1[C@@H](c1ccnc(OC)c1OC)[C@@](O)(CCN(C)C)c1cccc(C)c1` [Compound 45] returned an IC50 of 530 nM.
In turn, `COc1cc([C@H](c2cc3cc(Br)ccc3nc2OC)[C@@](O)(CCN(C)C)c2cccc(F)c2)cnc1OC` [Compound 43] displayed an IC50 of 1900 nM. Besides, the “improvement in hERG IC50 relative to 1” value (versus compound 1) is 5 fold.
